Test results reported in PubChem BioAssay AID1745844 (Carcinogenic Potency Database (CPDB), 2022).
Calls of active or inactive are those of the source. The rule behind the calls is not given here.

System: rodent lifetime carcinogenesis bioassay, tumor incidence TD50
Assay: carcinogenic potency in animals, long-term in vivo studies, CPDB compilation (AID 1745844)
[1] = mouse, strain B6AKF1, females, oral dosing, site: any site (literature study), lesion: several types, types named in the paper, dosed 76 weeks, study length 76 weeks
[2] = mouse, strain B6AKF1, females, oral dosing, site: liver, lesion: hepatoma, dosed 76 weeks, study length 76 weeks
[3] = mouse, strain B6AKF1, females, oral dosing, site: lung, lesion: adenoma, dosed 76 weeks, study length 76 weeks
[4] = mouse, strain B6AKF1, males, oral dosing, site: any site (literature study), lesion: several types, types named in the paper, dosed 76 weeks, study length 76 weeks
[5] = mouse, strain B6AKF1, males, oral dosing, site: liver, lesion: hepatoma, dosed 76 weeks, study length 76 weeks
[6] = mouse, strain B6AKF1, males, oral dosing, site: lung, lesion: adenoma, dosed 76 weeks, study length 76 weeks
[7] = mouse, strain B6C3F1, females, oral dosing, site: any site (literature study), lesion: several types, types named in the paper, dosed 76 weeks, study length 76 weeks
[8] = mouse, strain B6C3F1, females, oral dosing, site: liver, lesion: hepatoma, dosed 76 weeks, study length 76 weeks
[9] = mouse, strain B6C3F1, females, oral dosing, site: lung, lesion: adenoma, dosed 76 weeks, study length 76 weeks
[10] = mouse, strain B6C3F1, males, oral dosing, site: any site (literature study), lesion: several types, types named in the paper, dosed 76 weeks, study length 76 weeks
[11] = mouse, strain B6C3F1, males, oral dosing, site: liver, lesion: hepatoma, dosed 76 weeks, study length 76 weeks
[12] = mouse, strain B6C3F1, males, oral dosing, site: lung, lesion: several types, types named in the paper, dosed 76 weeks, study length 76 weeks

Question: Which carcinogen call (mouse, strain B6C3F1, females, inhaled, site: any site (literature study), lesion: several types, types named in the paper, dosed 104 weeks, study length 104 weeks) does the source give for `O=S(=O)([O-])[O-].[Ni+2]` here?
Answer: negative (inactive)

Question: And the TD50 (mouse, strain B6C3F1, females, inhaled, site: lung, lesion: alveolar/bronchiolar adenoma + alveolar/bronchiolar carcinoma, dosed 104 weeks, study length 104 weeks)?
Answer: 3.1 mg/kg/day

Question: And the carcinogen call (mouse, strain B6C3F1, males, inhaled, site: any site (literature study), lesion: several types, types named in the paper, dosed 104 weeks, study length 105 weeks)?
Answer: negative (inactive)

Question: And the carcinogen call (rat, strain Fischer 344, females, inhaled, site: any site (literature study), lesion: several types, types named in the paper, dosed 104 weeks, study length 104 weeks)?
Answer: negative (inactive)

Question: What about the carcinogen call (rat, strain Fischer 344, males, inhaled, site: any site (literature study), lesion: several types, types named in the paper, dosed 104 weeks, study length 105 weeks) of the same compound?
Answer: negative (inactive)

Question: And the TD50 (rat, strain Fischer 344, males, inhaled, site: liver, lesion: hepatocellular adenoma + hepatoblastoma + hepatocellular carcinoma, dosed 104 weeks, study length 105 weeks)?
Answer: 2.08 mg/kg/day

Question: What does the source list for `CCCN(CCC)N=O`?
Answer: TD50 (monkey, strain Rhesus [Macaca mulatta], both sexes, i.p., site: any site (literature study), lesion: malignant tumor, dosed 133 weeks, study length 133 weeks): 0.0121 mg/kg/day; TD50 (monkey, strain Rhesus [Macaca mulatta], both sexes, i.p., site: liver, lesion: hepatocellular carcinoma, dosed 133 weeks, study length 133 weeks): 0.0121 mg/kg/day; TD50 (rat, strain Fischer 344, females, by gavage, site: esophagus, lesion: several types, types named in the paper, dosed 30 weeks, study length 60 weeks): 0.505 mg/kg/day; TD50 (rat, strain Fischer 344, females, by gavage, site: liver, lesion: hepatocellular carcinoma, dosed 30 weeks, study length 60 weeks): 0.186 mg/kg/day; TD50 (rat, strain Fischer 344, females, by gavage, site: nasal cavity, lesion: carcinoma, dosed 30 weeks, study length 60 weeks): 0.186 mg/kg/day

Question: How did the carcinogen call (mouse, strain B6C3F1, females, in feed, site: any site (literature study), lesion: several types, types named in the paper, dosed 82 weeks, study length 92 weeks) turn out when `Cc1cccc(OCC(O)CNC(C)(C)C)c1C` (stereo not drawn) was run?
Answer: negative (inactive)

Question: What about the carcinogen call (mouse, strain B6C3F1, females, in feed, site: liver, lesion: several types, types named in the paper, dosed 82 weeks, study length 92 weeks) of the same compound?
Answer: negative (inactive)

Question: And the carcinogen call (mouse, strain B6C3F1, females, in feed, site: lung, lesion: several types, types named in the paper, dosed 82 weeks, study length 92 weeks)?
Answer: negative (inactive)

Question: And the TD50 (mouse, strain B6C3F1, males, in feed, site: any site (literature study), lesion: several types, types named in the paper, dosed 82 weeks, study length 92 weeks)?
Answer: 618 mg/kg/day (inactive)

Question: What about the carcinogen call (mouse, strain B6C3F1, males, in feed, site: liver, lesion: several types, types named in the paper, dosed 82 weeks, study length 92 weeks) of the same compound?
Answer: negative (inactive)

Question: And the TD50 (mouse, strain B6C3F1, males, in feed, site: lung, lesion: several types, types named in the paper, dosed 82 weeks, study length 92 weeks)?
Answer: 1730 mg/kg/day (inactive)

Question: How did the TD50 (mouse, strain B6C3F1, females, in feed, site: any site (literature study), lesion: several types, types named in the paper, dosed 109 weeks, study length 103 weeks) turn out when `S=C(NC1CCCCC1)NC1CCCCC1` was run?
Answer: 122000 mg/kg/day (inactive)

Question: And the TD50 (mouse, strain B6C3F1, females, in feed, site: lung, lesion: alveolar/bronchiolar adenoma + alveolar/bronchiolar carcinoma, dosed 109 weeks, study length 103 weeks)?
Answer: 1.11e+08 mg/kg/day

Question: And the carcinogen call (mouse, strain B6C3F1, males, in feed, site: any site (literature study), lesion: several types, types named in the paper, dosed 109 weeks, study length 103 weeks)?
Answer: negative (inactive)

Question: What about the carcinogen call (rat, strain Fischer 344, females, in feed, site: any site (literature study), lesion: several types, types named in the paper, dosed 109 weeks, study length 109 weeks) of the same compound?
Answer: negative (inactive)

Question: What about the TD50 (rat, strain Fischer 344, males, in feed, site: any site (literature study), lesion: several types, types named in the paper, dosed 109 weeks, study length 109 weeks) of the same compound?
Answer: 3910 mg/kg/day

Question: What about the TD50 (rat, strain Fischer 344, males, in feed, site: liver, lesion: hepatocellular adenoma + hepatocellular carcinoma + neoplastic nodule, dosed 109 weeks, study length 109 weeks) of the same compound?
Answer: 15600 mg/kg/day

Question: What about the TD50 (rat, strain Fischer 344, males, in feed, site: skin, lesion: basal-cell carcinoma, dosed 109 weeks, study length 109 weeks) of the same compound?
Answer: 26100 mg/kg/day

Question: What about the TD50 (rat, strain Fischer 344, males, in feed, site: thyroid gland, lesion: c-cell adenoma, dosed 109 weeks, study length 109 weeks) of the same compound?
Answer: 5480 mg/kg/day (inactive)

Question: What about the TD50 (rat, strain Fischer 344, males, in feed, site: thyroid gland, lesion: follicular-cell adenoma + follicular-cell carcinoma, dosed 109 weeks, study length 109 weeks) of the same compound?
Answer: 7410 mg/kg/day

Question: Which TD50 [1] does the source give for `c1ccc2sc(SSc3nc4ccccc4s3)nc2c1` here?
Answer: 1380 mg/kg/day (inactive)

Question: And the carcinogen call [2]?
Answer: negative (inactive)

Question: What about the carcinogen call [3] of the same compound?
Answer: negative (inactive)

Question: What about the TD50 [4] of the same compound?
Answer: 511 mg/kg/day (inactive)

Question: And the carcinogen call [5]?
Answer: negative (inactive)

Question: What about the TD50 [6] of the same compound?
Answer: 1130 mg/kg/day (inactive)

Question: And the TD50 [7]?
Answer: 432 mg/kg/day (inactive)

Question: What about the carcinogen call [8] of the same compound?
Answer: negative (inactive)

Question: And the TD50 [9]?
Answer: 669 mg/kg/day (inactive)

Question: What about the TD50 [10] of the same compound?
Answer: 401 mg/kg/day (inactive)

Question: What about the TD50 [11] of the same compound?
Answer: 621 mg/kg/day (inactive)

Question: And the carcinogen call [12]?
Answer: negative (inactive)

Question: Which results are given for `CC(C)N=[N+]([O-])C(C)C`?
Answer: TD50 (rat, strain Sprague-Dawley, males, by gavage, site: liver, lesion: hepatocellular carcinoma, dosed 26 weeks, study length 77 weeks): 0.00736 mg/kg/day; TD50 (rat, strain Sprague-Dawley, males, by gavage, site: skin, lesion: keratoacanthoma, dosed 26 weeks, study length 77 weeks): 0.00268 mg/kg/day

Question: What does the source list for `CN(C#N)N=O`?
Answer: TD50 (rat, strain Sprague-Dawley, females, in drinking water, site: forestomach, lesion: carcinoma, dosed 60 weeks, study length 95 weeks): 1.17 mg/kg/day; TD50 (rat, strain Sprague-Dawley, females, in drinking water, site: forestomach, lesion: several types, types named in the paper, dosed 60 weeks, study length 95 weeks): 0.48 mg/kg/day

Question: For `C=CC(O)c1ccc(OC)cc1` (stereo not drawn), which TD50 (mouse, strain Charles River CD1, females, in feed, site: liver, lesion: hepatoma, dosed 51 weeks, study length 86 weeks) is on record?
Answer: 57.8 mg/kg/day

Question: `Cc1ccc(-c2cc(C(F)(F)F)nn2-c2ccc(S(N)(=O)=O)cc2)cc1` was tested. Which carcinogen call (rat, strain Fischer 344, males, in feed, site: colon, lesion: one or several types, types not named, dosed 53 weeks, study length 53 weeks) did it give?
Answer: negative (inactive)

Question: How did the TD50 [1] turn out when `S=C([S-])NCCNC(=S)[S-].[Zn+2]` was run?
Answer: 1150 mg/kg/day (inactive)

Question: And the carcinogen call [2]?
Answer: negative (inactive)

Question: And the TD50 [3]?
Answer: 1150 mg/kg/day (inactive)

Question: What about the TD50 [4] of the same compound?
Answer: 715 mg/kg/day (inactive)

Question: And the TD50 [5]?
Answer: 903 mg/kg/day (inactive)

Question: And the carcinogen call [6]?
Answer: negative (inactive)

Question: What about the TD50 [7] of the same compound?
Answer: 1150 mg/kg/day (inactive)

Question: And the carcinogen call [8]?
Answer: negative (inactive)

Question: And the TD50 [9]?
Answer: 1150 mg/kg/day (inactive)

Question: And the TD50 [10]?
Answer: 189 mg/kg/day (inactive)

Question: And the TD50 [11]?
Answer: 244 mg/kg/day (inactive)

Question: And the carcinogen call [12]?
Answer: negative (inactive)

Question: And the carcinogen call (mouse, strain CFLP, females, in feed, site: any site (literature study), lesion: several types, types named in the paper, dosed 92 weeks, study length 94 weeks)?
Answer: negative (inactive)

Question: And the TD50 (mouse, strain CFLP, females, in feed, site: liver, lesion: hepatocellular adenoma, dosed 92 weeks, study length 94 weeks)?
Answer: 1730 mg/kg/day (inactive)

Question: What about the TD50 (mouse, strain CFLP, females, in feed, site: liver, lesion: hepatocellular carcinoma, dosed 92 weeks, study length 94 weeks) of the same compound?
Answer: 12600 mg/kg/day (inactive)

Question: And the TD50 (mouse, strain CFLP, females, in feed, site: lung, lesion: adenocarcinoma, dosed 92 weeks, study length 94 weeks)?
Answer: 6490 mg/kg/day (inactive)

Question: And the carcinogen call (mouse, strain CFLP, females, in feed, site: lung, lesion: adenoma, dosed 92 weeks, study length 94 weeks)?
Answer: negative (inactive)

Question: And the carcinogen call (mouse, strain CFLP, males, in feed, site: any site (literature study), lesion: several types, types named in the paper, dosed 96 weeks, study length 96 weeks)?
Answer: negative (inactive)

Question: And the TD50 (mouse, strain CFLP, males, in feed, site: liver, lesion: hepatocellular adenoma, dosed 96 weeks, study length 96 weeks)?
Answer: 420 mg/kg/day (inactive)

Question: And the TD50 (mouse, strain CFLP, males, in feed, site: liver, lesion: hepatocellular carcinoma, dosed 96 weeks, study length 96 weeks)?
Answer: 3700 mg/kg/day (inactive)

Question: And the carcinogen call (mouse, strain CFLP, males, in feed, site: lung, lesion: adenocarcinoma, dosed 96 weeks, study length 96 weeks)?
Answer: negative (inactive)

Question: What about the TD50 (mouse, strain CFLP, males, in feed, site: lung, lesion: adenoma, dosed 96 weeks, study length 96 weeks) of the same compound?
Answer: 932 mg/kg/day (inactive)

Question: What about the carcinogen call (rat, strain Charles River CD (Sprague-Dawley), females, in feed, site: liver, lesion: hepatocellular adenoma, dosed 112 weeks, study length 112 weeks) of the same compound?
Answer: negative (inactive)

Question: And the TD50 (rat, strain Charles River CD (Sprague-Dawley), females, in feed, site: liver, lesion: hepatocellular carcinoma, dosed 112 weeks, study length 112 weeks)?
Answer: 1190 mg/kg/day (inactive)

Question: And the TD50 (rat, strain Charles River CD (Sprague-Dawley), females, in feed, site: pituitary gland, lesion: adenoma, dosed 112 weeks, study length 112 weeks)?
Answer: 27.9 mg/kg/day (inactive)

Question: What about the carcinogen call (rat, strain Charles River CD (Sprague-Dawley), males, in feed, site: liver, lesion: hepatocellular adenoma, dosed 119 weeks, study length 119 weeks) of the same compound?
Answer: negative (inactive)

Question: What about the TD50 (rat, strain Charles River CD (Sprague-Dawley), males, in feed, site: liver, lesion: hepatocellular carcinoma, dosed 119 weeks, study length 119 weeks) of the same compound?
Answer: 1080 mg/kg/day (inactive)

Question: What about the carcinogen call (rat, strain Charles River CD (Sprague-Dawley), males, in feed, site: pituitary gland, lesion: adenoma, dosed 119 weeks, study length 119 weeks) of the same compound?
Answer: negative (inactive)

Question: And the TD50 (rat, strain Mongrel, both sexes, by gavage, site: any site (literature study), lesion: several types, types named in the paper, dosed 95 weeks, study length 104 weeks)?
Answer: 255 mg/kg/day
